Test results taken from patent US8933195B2, “Histone deacetylase inhibitors and synthetic method thereof and use thereof in manufacture of medicaments” (Nanjing Yoko Biomedical R & D Ltd., priority 2011, dated 2015).

What was measured:
HDAC7 = biological target: T1, HDAC7 (Homo sapiens, UniProt Q8WUI4); assay: Measurement of biochemical activities of HDAC (fluorescently-labeled acetylated lysine substrate)
T1 sequence (Q8WUI4 1-952): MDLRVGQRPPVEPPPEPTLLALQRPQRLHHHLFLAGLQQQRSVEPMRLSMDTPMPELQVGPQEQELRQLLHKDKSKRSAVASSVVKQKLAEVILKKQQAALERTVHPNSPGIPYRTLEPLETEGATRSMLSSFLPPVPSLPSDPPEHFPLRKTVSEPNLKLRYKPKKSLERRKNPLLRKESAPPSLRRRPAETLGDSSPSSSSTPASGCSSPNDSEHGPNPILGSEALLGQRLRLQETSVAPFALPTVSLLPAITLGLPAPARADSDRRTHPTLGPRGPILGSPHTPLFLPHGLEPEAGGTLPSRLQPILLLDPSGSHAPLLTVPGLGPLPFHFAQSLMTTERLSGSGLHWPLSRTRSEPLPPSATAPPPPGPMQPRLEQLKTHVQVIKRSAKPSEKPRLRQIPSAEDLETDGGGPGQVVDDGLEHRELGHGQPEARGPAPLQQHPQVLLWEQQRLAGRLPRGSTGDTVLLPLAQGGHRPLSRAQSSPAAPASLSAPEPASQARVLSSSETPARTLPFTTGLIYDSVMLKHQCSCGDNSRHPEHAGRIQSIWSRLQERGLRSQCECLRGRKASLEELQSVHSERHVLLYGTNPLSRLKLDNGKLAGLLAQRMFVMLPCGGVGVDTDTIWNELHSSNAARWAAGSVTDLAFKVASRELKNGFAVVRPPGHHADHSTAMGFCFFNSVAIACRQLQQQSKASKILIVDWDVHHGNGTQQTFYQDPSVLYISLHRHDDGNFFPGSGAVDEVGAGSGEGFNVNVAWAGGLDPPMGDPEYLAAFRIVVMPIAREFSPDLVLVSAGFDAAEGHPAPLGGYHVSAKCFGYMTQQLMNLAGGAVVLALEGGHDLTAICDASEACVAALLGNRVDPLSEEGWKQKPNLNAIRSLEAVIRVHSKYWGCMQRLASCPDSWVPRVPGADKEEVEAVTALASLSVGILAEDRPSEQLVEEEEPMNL
Method in brief: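 For both HDAC isoforms, fluorescent acetyl-lysine substrate ([…] in reaction) incubated with enzyme and compounds for 30 min at 37; developer then added for 15 min at room temperature. Fluorescence read at excitation 360 nm, emission 460 nm.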

Incap = assay: MTT cancer cell growth inhibition; format: cell-based; details: 72 h
[1] = tested on: human colon cancer HCT-116; assay: Subcutaneously transplanted tumors in nude mice; format: in vivo, BALB/cA nude mice; design: key to RTV (mean ± SD): RTV = Vt/V0, tumor volume at time t over volume at d0; details: for 1-T/C tumor inhibition rate: after three weeks; for RTV (mean ± SD) / TV (mean ± SD) d21: d21
Experimental: The solvents are isopropanol and anhydrous ethanol (mixed in the volume ratio of 1:1). The test sample is dissolved with solvents and physiological saline in the ratio of 1:1 for use, and the above solvents and physiological saline are dissolved in the ratio of 1:1 as a negative control.
The number of mice in each group: 12 mice in the negative control group, and 6 mice in the administration group.
The cell strains are inoculated to the right axilla subcutaneous layer of the nude mice, with 5×10^6 per mouse. After formed, the transplanted tumors are passed down two generations in the nude mice and then used.
Tumor tissues in the vigorous growth period are cut into about 1.5 mm^3, and inoculated to the right axilla subcutaneous layer of the nude mice under aseptic conditions. For the subcutaneously transplanted tumors of the nude mice, the diameter of the transplanted tumors is measured by a vernier caliper. The mice are randomly grouped after the tumors grow to 100-200 mm^3. […] The diameter of the transplanted tumors is measured twice per week in the whole experimental process, and meanwhile the weight of the mice is weighed. The calculation formula of tumor volume (TV) is TV=½×a×b^2, where a and b represent length and width, respectively.
The relative tumor volume (RTV) is calculated according to the measured results, with the following calculation formula: RTV=Vt/V0, where V0 is the tumor volume obtained by measurement during administration in different cages (i.e., d0), Vt is the tumor volume obtained by measurement at each time. […] (Wc−WT)Wc×100%, where Wc is the tumor weight of the control group, and WT is the tumor weight of the treatment group.

[2] = Table 2.1, 20 mg/kg q3d × 3w iv

## C/C=C1\NC(=O)c2csc(n2)CNC(=O)C[C@@H](/C=C/CCSC(=O)CCCCCCC)OC(=O)[C@H](Cc2ccccc2)NC1=O [Compound 1-7]
HDAC7
  IC50 HDAC7: no activity
Incap
  GI50: 0.5 µM
[1]; [2]
  1-T/C tumor inhibition rate: 72.24%
  TV (mean ± SD) d0: 115 ± 20 mm^3
  Weight d0: 16.6 g
  RTV (mean ± SD): 2.89 ± 1.62
  TV (mean ± SD) d21: 332 ± 186 mm^3
[1]; Table 2.2, 20 mg/kg
  Tumor Volume TV (mean ± SD) d 0: 116 ± 21 mm^3
  Tumor Volume TV (mean ± SD) d 3: 131 ± 11 mm^3
  Tumor Volume TV (mean ± SD) d 7: 158 ± 26 mm^3
  Tumor Volume TV (mean ± SD) d 10: 199 ± 68 mm^3
  Tumor Volume TV (mean ± SD) d 14: 245 ± 107 mm^3
  Tumor Volume TV (mean ± SD) d 17: 275 ± 132 mm^3
[1]; Table 2.3, 20 mg/kg
  Weight (mean ± SD) d 0: 16.6 ± 1.1 g
  Weight (mean ± SD) d 3: 15.9 ± 0.7 g
  Weight (mean ± SD) d 7: 15.1 ± 0.9 g
  Weight (mean ± SD) d 10: 14.5 ± 1.2 g
  Weight (mean ± SD) d 14: 14.0 ± 1.0 g
  Weight (mean ± SD) d 17: 13.5 ± 1.0 g
  Weight (mean ± SD) d 21: 13.2 ± 1.0 g

## O=C(CCCCCCC(=O)Nc1ccccc1)NO [SAHA, suberoylanilide hydroxamic acid, reference compound]
HDAC7
  IC50 HDAC7: no activity
Incap
  GI50: 4.56 µM
[1]; Table 1.1, 50 mg/kg qd × 3w iv
  TV (mean ± SD) d0: 116 ± 27 mm^3
  Weight d0: 16.6 g
  RTV (mean ± SD): 4.87 ± 1.68
  TV (mean ± SD) d21: 566 ± 221 mm^3
[1]; Table 1.2, 50 mg/kg
  Tumor Volume TV (mean ± SD) d 0: 116 ± 27 mm^3
  Tumor Volume TV (mean ± SD) d 3: 146 ± 38 mm^3
  Tumor Volume TV (mean ± SD) d 7: 191 ± 25 mm^3
  Tumor Volume TV (mean ± SD) d 10: 283 ± 41 mm^3
  Tumor Volume TV (mean ± SD) d 14: 326 ± 45 mm^3
  Tumor Volume TV (mean ± SD) d 17: 417 ± 140 mm^3
[1]; Table 1.3, 50 mg/kg
  Weight (mean ± SD) d 0: 16.6 ± 1.5 g
  Weight (mean ± SD) d 3: 15.9 ± 1.5 g
  Weight (mean ± SD) d 7: 14.9 ± 1.8 g
  Weight (mean ± SD) d 10: 14.6 ± 1.4 g
  Weight (mean ± SD) d 14: 14.1 ± 1.3 g
  Weight (mean ± SD) d 17: 13.6 ± 1.3 g
  Weight (mean ± SD) d 21: 13.3 ± 1.1 g
[1]; Table 2.1, 50 mg/kg qd × 3w iv
  TV (mean ± SD) d0: 118 ± 25 mm^3
  Weight d0: 16.9 g
  RTV (mean ± SD): 4.54 ± 1.72
  TV (mean ± SD) d21: 536 ± 203 mm^3
[1]; Table 2.2, 50 mg/kg
  Tumor Volume TV (mean ± SD) d 0: 120 ± 25 mm^3
  Tumor Volume TV (mean ± SD) d 3: 146 ± 36 mm^3
  Tumor Volume TV (mean ± SD) d 7: 189 ± 20 mm^3
  Tumor Volume TV (mean ± SD) d 10: 263 ± 33 mm^3
  Tumor Volume TV (mean ± SD) d 14: 300 ± 35 mm^3
  Tumor Volume TV (mean ± SD) d 17: 402 ± 146 mm^3
[1]; Table 2.3, 50 mg/kg
  Weight (mean ± SD) d 0: 16.8 ± 1.0 g
  Weight (mean ± SD) d 3: 15.7 ± 1.2 g
  Weight (mean ± SD) d 7: 14.9 ± 1.6 g
  Weight (mean ± SD) d 10: 14.6 ± 1.5 g
  Weight (mean ± SD) d 14: 14.2 ± 1.4 g
  Weight (mean ± SD) d 17: 13.8 ± 1.3 g
  Weight (mean ± SD) d 21: 13.4 ± 1.1 g

## C/C=C1\NC(=O)c2csc(n2)CNC(=O)C[C@@H](/C=C/CCSC(=O)CCCCCCC)OC(=O)[C@H](C(C)(C)C)NC1=O [Compound 1-6]
HDAC7
  IC50 HDAC7: no activity
Incap
  GI50: 1.2 µM
[1]; [2]
  1-T/C tumor inhibition rate: 74.09%
  TV (mean ± SD) d0: 121 ± 28 mm^3
  Weight d0: 16.9 g
  RTV (mean ± SD): 2.69 ± 1.82
  TV (mean ± SD) d21: 326 ± 221 mm^3
[1]; Table 2.2, 20 mg/kg
  Tumor Volume TV (mean ± SD) d 0: 120 ± 28 mm^3
  Tumor Volume TV (mean ± SD) d 3: 129 ± 15 mm^3
  Tumor Volume TV (mean ± SD) d 7: 156 ± 23 mm^3
  Tumor Volume TV (mean ± SD) d 10: 195 ± 58 mm^3
  Tumor Volume TV (mean ± SD) d 14: 249 ± 110 mm^3
  Tumor Volume TV (mean ± SD) d 17: 265 ± 122 mm^3
[1]; Table 2.3, 20 mg/kg
  Weight (mean ± SD) d 0: 16.9 ± 1.0 g
  Weight (mean ± SD) d 3: 16.6 ± 1.8 g
  Weight (mean ± SD) d 7: 15.9 ± 1.6 g
  Weight (mean ± SD) d 10: 15.5 ± 1.6 g
  Weight (mean ± SD) d 14: 14.8 ± 1.8 g
  Weight (mean ± SD) d 17: 14.2 ± 1.7 g
  Weight (mean ± SD) d 21: 13.1 ± 1.6 g
